Test results: patent US9126941B2, “Treatment of hyperproliferative disorders with diarylhydantoin compounds” (The Regents of the University of California, priority 2005, dated 2015)
Where two headings read alike, the source gives them in different places.

Tests used:
AR [1] = molecular target: T1, AR (Homo sapiens, UniProt P10275); assay: cell-based; format: cell-based
Description: It is well established that PSA levels are indicators of AR activities in prostate cancer. […] The LNCaP-AR cells are a line of lymph node carcinoma of prostate cells transduced with a plasmid that makes express androgen receptors. […] After four days incubation, secreted PSA levels were assayed using PSA ELISA kits (American Qualex, San Clemente, Calif.)

4AR cell line = assay: Luciferase activity in the 4AR cell line; format: cell-based; conditions: for a given dose, 1.25 to 10 μmol
1AR cell line = assay: Luciferase activity in the 1AR cell line; format: cell-based; conditions: for a given dose
AR [2] = molecular target: T1, AR; assay: cell-based
Excerpt: Table 2 lists the agonistic activities of different compounds.

[3] = molecular target: glucocorticoid receptor (GR) (Homo sapiens (Human), UniProt P04150); assay: GR response reporter in LNCaP cells over expressing glucocorticoid receptor; format: cell-based; conditions: reporter induced by dexamethasone
Chain of glucocorticoid receptor (GR) (P04150 whole entry, species assumed): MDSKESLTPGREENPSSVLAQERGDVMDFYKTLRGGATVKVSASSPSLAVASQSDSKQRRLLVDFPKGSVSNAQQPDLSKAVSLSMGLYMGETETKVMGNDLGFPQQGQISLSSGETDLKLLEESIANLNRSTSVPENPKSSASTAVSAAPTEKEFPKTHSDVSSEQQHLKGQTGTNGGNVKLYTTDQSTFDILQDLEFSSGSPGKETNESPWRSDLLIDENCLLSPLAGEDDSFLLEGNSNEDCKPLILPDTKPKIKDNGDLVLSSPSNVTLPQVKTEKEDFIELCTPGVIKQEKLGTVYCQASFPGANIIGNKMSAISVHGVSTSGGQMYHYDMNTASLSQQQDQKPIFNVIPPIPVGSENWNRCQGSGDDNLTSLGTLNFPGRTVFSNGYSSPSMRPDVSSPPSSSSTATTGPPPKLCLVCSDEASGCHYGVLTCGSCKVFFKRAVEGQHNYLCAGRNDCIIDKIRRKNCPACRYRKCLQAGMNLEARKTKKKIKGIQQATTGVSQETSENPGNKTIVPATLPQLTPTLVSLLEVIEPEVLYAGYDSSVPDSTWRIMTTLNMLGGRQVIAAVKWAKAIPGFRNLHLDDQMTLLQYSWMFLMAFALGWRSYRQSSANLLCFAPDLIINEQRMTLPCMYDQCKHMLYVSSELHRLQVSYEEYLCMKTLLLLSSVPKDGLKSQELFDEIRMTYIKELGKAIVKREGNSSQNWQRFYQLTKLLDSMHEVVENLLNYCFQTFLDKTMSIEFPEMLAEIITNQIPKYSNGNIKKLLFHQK

AR [4] = molecular target: T1, AR; assay: cell-based; format: cell-based; remark: listed apart in the source
Description: The compounds were subjected to tests using an artificial AR response reporter system in a hormone refractory prostate cancer cell line. […] After two days of incubation, reporter activities were assayed.

[5] = system: hormone refractory LAPC4 xenograft; assay: Hormone refractory LAPC4 xenograft model; format: in vivo, mice; conditions: 1 mg per kg orally once daily, 17 days
Description: FIG. 9. […] (A), tumor size was measured by caliber. (B), the tumors were taken out from the mice after 17 days of treatment, tumor lysate was extracted, and PSA level in tissue lysate was determined by ELISA.
This model was established from passaging of hormone sensitive prostate cancer in castrated mice, which mimics the clinical progression of prostate cancer (2).

SkBr3 = assay: Growth effect on SkBr3 cells; format: cell-based; conditions: breast cancer cells
MCF7 = assay: Growth effect on MCF7 cells; format: cell-based; conditions: breast cancer cells
LNCaP cells = assay: MTS growth assay, hormone sensitive LNCaP cells; format: cell-based; conditions: FIG. 10, MTS
Description: FIG. 10. Inhibitory effect on growth of hormone sensitive prostate cancer cells. […] After 4 days of incubation, cell growth was measured by MTS assay.

[6] = Pharmacokinetics in FVB mice, drug concentration by HPLC; conditions: mice
Description: Mice were divided into groups of three for each time points. Two mice were not treated with drug and two other mice were treated with vehicle solution. […]
The drug was dissolved in a mixture 1:5:14 of DMSO:PEG400:H20. (Vehicle solution) and was administered into mice through the tail vein. The animals are warmed under a heat lamp for approximately 20 minutes prior to treatment to dilate their tail vein. […] After drug administration, the animals were euthanized via CO2 inhalation at different timepoints: […], […], 2 h, 6 h, 16 h. Animals were immediately bleed after exposure to CO2 via cardiac puncture (1 ml BD syringe+27 G ⅝ needle).
The samples for HPLC analysis were prepared according to the following procedure: • Blood cells were separated from serum by centrifugation. • To 400 μl of serum were added 80 μl of a 10 μM solution of an internal standard and 520 μl of acetonitrile. Precipitation occurred. • The mixture was vortexed for 3 minutes and then placed under ultrasound for 30 minutes. • The solid particles were filtered off or were separated by centrifugation. • The filtrate was dried under an argon flow to dryness.

[7] = system: AR-overexpressed LNCaP xenograft tumors; assay: AR-overexpressed LNCaP xenograft model in castrated male SCID mice, oral once daily; format: in vivo; conditions: 44 days
Description: FIG. 7. […] Mice with established LN-AR xenograft tumors were randomized and treated with indicated compounds orally once daily. Tumor size was measured by caliber.
FIG. 8. […] The tumors were taken out from the mice after 44 days of treatment, tumor lysate was extracted, and PSA level in tissue lysate was determined by ELISA.
First we examined this compound on xenograft tumors established from AR-overexpressed LNCaP cells. The engineered cells in Matrigel (Collaborative Biomedical) were injected subcutaneously into the flanks of the castrated male SCID mice. Tumor size was measured weekly in three dimensions using calipers. After xenograft tumors established (tumor size reached at least 40 mm^3), mice with tumors were randomized and treated with different doses of compounds orally once daily.

AR [8] = molecular target: T1, AR; assay: cell-based; format: cell-based; remark: listed apart in the source
DU-145 cells = assay: MTS growth assay, DU-145 cells; format: cell-based; conditions: prostate cancer cell line lacking AR expression
3T3 = assay: Growth effect on 3T3 fibroblasts; format: cell-based; conditions: normal mouse fibroblast cell line

T1 sequence (P10275 whole entry, looked up): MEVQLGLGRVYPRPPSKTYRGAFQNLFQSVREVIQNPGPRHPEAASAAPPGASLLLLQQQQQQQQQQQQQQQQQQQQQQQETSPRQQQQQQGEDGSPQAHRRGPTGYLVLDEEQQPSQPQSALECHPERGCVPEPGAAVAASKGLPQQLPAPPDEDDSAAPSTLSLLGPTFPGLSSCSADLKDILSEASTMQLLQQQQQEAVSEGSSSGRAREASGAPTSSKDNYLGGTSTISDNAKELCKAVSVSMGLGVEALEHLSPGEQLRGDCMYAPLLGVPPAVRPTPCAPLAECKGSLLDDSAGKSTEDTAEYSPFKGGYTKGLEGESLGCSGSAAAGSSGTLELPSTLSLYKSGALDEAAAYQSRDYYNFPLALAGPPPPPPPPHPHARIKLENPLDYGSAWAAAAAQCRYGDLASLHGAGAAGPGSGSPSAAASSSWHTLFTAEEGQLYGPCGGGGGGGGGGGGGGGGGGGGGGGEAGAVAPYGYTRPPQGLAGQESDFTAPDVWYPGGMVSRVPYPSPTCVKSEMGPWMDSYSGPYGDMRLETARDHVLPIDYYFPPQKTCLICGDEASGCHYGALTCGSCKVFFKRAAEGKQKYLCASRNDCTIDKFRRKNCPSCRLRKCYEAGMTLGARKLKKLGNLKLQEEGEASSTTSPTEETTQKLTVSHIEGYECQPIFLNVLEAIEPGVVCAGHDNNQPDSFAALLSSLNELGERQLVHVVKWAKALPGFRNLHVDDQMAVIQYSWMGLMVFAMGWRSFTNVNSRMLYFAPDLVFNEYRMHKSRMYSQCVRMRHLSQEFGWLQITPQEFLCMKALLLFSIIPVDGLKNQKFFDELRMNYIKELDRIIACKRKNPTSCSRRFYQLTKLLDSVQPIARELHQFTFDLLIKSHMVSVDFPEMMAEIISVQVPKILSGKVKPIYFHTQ

## CC1(C)C(=O)N(c2ccc(C#N)c(C(F)(F)F)c2)C(=S)N1c1ccc(O)cc1 [RD8, 4-[3-(4-hydroxyphenyl)-4,4-dimethyl-5-oxo-2-thioxoimidazolidin-1-yl]-2-trifluoromethylbenzonitrile]
AR [1]; for a given dose / concentration
  PSA level, LN/AR cell line, comparison: less than the PSA level upon exposure to RD9
4AR cell line
  Luciferase activity, 4AR cell line (FIG. 26): less than the luciferase activity upon exposure to RD9
1AR cell line
  Luciferase activity, 1AR cell line: less than the luciferase activity upon exposure to RD9

## Cc1ccc(N2C(=S)N(c3ccc(C#N)c(C(F)(F)F)c3)C(=O)C23CCC3)cc1 [RD37, 4-(8-oxo-6-thioxo-5-(4-methylphenyl)-5,7-diazaspiro[3.4]oct-7-yl)-2-trifluoromethylbenzonitrile]
AR [2]; LN-AR, absence of R1881
  Agonistic activity on AR, reporter: no agonistic activity
AR [2]; read-out: Fold induction of AR response reporter, 0.1 μM
  fold induction at 0.1 µM: 0.87
AR [2]; read-out: Fold induction of AR response reporter, 1 μM
  fold induction at 1 µM: 1.19
AR [2]; read-out: Fold induction of AR response reporter, 10 μM
  fold induction at 10 µM: 0.89
[3]
  Effect on GR response reporter: no effect on GR
AR [1]
  IC50: 128 nM
AR [1]; 500 nM
  Rank order, most active to least active, relative PSA level (FIG. 4): RD138>RD131>RD37>RD133>RD134>RD137>RD138>RD135>bicalutamide
AR [1]; at concentrations of 1000 nM
  Decrease in PSA level of LNCaP-AR cells, comparison (FIG. 4): greater decrease in PSA level of LNCaP-AR cells than RD133, RD134, and RD138
AR [4]
  IC50: 124 nM
AR [4]; assay not specified
  IC50 compared with bicalutamide (FIG. 15): much lower than the IC50 for bicalutamide
[5]
  Growth of hormone refractory LAPC4 xenograft (FIG. 9a): strongly inhibited
  PSA expression in hormone refractory LAPC4 xenograft (FIG. 9b): strongly inhibited
SkBr3
  Growth effect on SkBr3: no growth effect
MCF7
  Growth effect on MCF7: no growth effect
LNCaP cells
  Potency relative to bicalutamide on hormone sensitive prostate cancer cells: 10 fold
[6]
  Pharmacokinetic behavior, residence time in blood: metabolize fast
[7]; 1 mg per kg orally once daily
  Growth of LNCaP-AR xenograft tumors (FIG. 7a): strongly inhibited growth
[7]; 0.1, 1 or 10 mg per kg
  Dose dependence of tumor growth inhibition (FIG. 7b): dose-dependent
[7]; 0.1, 1 or 10 mg per kg, tumor lysate ELISA
  PSA expression in xenograft tumors (FIG. 8): inhibited PSA expression
AR [8]; AR over expressed LNCaP, absence of R1881
  Agonistic activity, secreted PSA: no agonistic activities
AR [8]; LNCaP, read-out: Fold induction of endogenous PSA, 0.1 μM
  fold induction at 0.1 µM: 1.25
AR [8]; LNCaP, read-out: Fold induction of endogenous PSA, 1 μM
  fold induction at 1 µM: 1.2
AR [8]; LNCaP, read-out: Fold induction of endogenous PSA, 10 μM
  fold induction at 10 µM: 1.15
DU-145 cells
  Growth inhibitory effect on DU-145 cells: no growth inhibitory effect
3T3
  Growth effect on 3T3: no growth effect
